Reference: patent US8309718B2, “4-pyrazolyl-N-arylpyrimidin-2-amines and 4-pyrazolyl-N-heteroarylpyrimidin-2-amines as janus kinase inhibitors” (Incyte Corporation, priority 2007, dated 2012)

These compounds were tested against T1, human JAK2 (Homo sapiens, UniProt O60674) (assay: In vitro JAK kinase assay (HTRF, phosphorylation of biotinylated peptide)). Conditions: catalytic domain a.a. 828-1132, 30 μM ATP, 500 nM peptide, room temperature 1 hr; read-out: JAK-2 IC50.
T1 construct: JAK2 (a.a. 828-1132); His tag (N); made in house; host or cells: insect cells (baculovirus)
T1 sequence (O60674 828-1132): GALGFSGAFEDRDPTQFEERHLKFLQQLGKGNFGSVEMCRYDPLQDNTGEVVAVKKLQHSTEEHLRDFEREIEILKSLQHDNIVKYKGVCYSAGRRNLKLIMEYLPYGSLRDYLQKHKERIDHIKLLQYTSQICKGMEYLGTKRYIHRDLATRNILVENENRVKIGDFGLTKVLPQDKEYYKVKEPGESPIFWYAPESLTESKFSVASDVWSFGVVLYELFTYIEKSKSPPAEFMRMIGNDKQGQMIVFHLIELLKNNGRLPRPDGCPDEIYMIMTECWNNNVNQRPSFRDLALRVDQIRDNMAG
Type: biochemical
Summary of the method: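 IC50 from HTRF detection (Eu-Py20 antibody, SA-APC) of biotinylated-peptide phosphorylation (500 nM), run 1 h at RT. Enzyme: N-His human JAK2 kinase domain a.a. 828-1132 from insect cells; ATP 30 μM; buffer 50 mM Tris pH 7.8 with NaCl, DTT, BSA.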

IC50, < 100 nM:
Cc1cnc(Nc2ccc(C(N)=O)cc2)nc1-c1cnn(C(CC#N)CC2CCN(S(=O)(=O)c3ccn(C)n3)CC2)c1 (racemic) [Example 53, 4-(4-(1-(1-cyano-3-(1-(1-methyl-1H-pyrazol-3-ylsulfonyl)piperidin-4-yl)propan-2-yl)-1H-pyrazol-4-yl)-5-methylpyrimidin-2-ylamino)benzamide]
COc1cnc(Nc2ccc(C(=O)NC3CCOCC3)cc2)nc1-c1cnn(C(CC#N)C2CCCC2)c1 (racemic) [Example 305, 4-(4-(1-(2-cyano-1-cyclopentylethyl)-1H-pyrazol-4-yl)-5-methoxypyrimidin-2-ylamino)-N-(tetrahydro-2H-pyran-4-yl)benzamide]
N#CCC1(n2cc(-c3ccnc(Nc4ccc(N5CCOCC5)cc4)n3)cn2)CCN(S(=O)(=O)C2CC2)CC1 [Example 29, 2-(1-(cyclopropylsulfonyl)-4-(4-(2-(4-morpholinophenylamino)pyrimidin-4-yl)-1H-pyrazol-1-yl)piperidin-4-yl)acetonitrile]
N#CCC(C1CCOCC1)n1cc(-c2ccnc(Nc3ccc(C(=O)N4CC[C@@H](O)C4)cc3)n2)cn1 (mixture of isomers) [Example 315, 3-(4-{2-[(4-{[(3R)-3-hydroxypyrrolidin-1-yl]carbonyl}phenyl)amino]pyrimidin-4-yl}-1H-pyrazol-1-yl)-3-(tetrahydro-2H-pyran-4-yl)propanenitrile]
N#CCC(C1CCCC1)n1cc(-c2ccnc(Nc3ccc(NC(=O)CN4CCNC(=O)C4)cc3)n2)cn1 (racemic) [Example 206, N-(4-(4-(1-(2-cyano-1-cyclopentylethyl)-1H-pyrazol-4-yl)pyrimidin-2-ylamino)phenyl)-2-(3-oxopiperazin-1-yl)acetamide]
COc1cnc(Nc2cccc(C(=O)N3CCCC3)c2)nc1-c1cnn(C(CC#N)C2CC2)c1 (racemic) [Example 324, 3-cyclopropyl-3-[4-(5-methoxy-2-{[3-(pyrrolidin-1-ylcarbonyl)phenyl]amino}pyrimidin-4-yl)-1H-pyrazol-1-yl]propanenitrile]
CCN(CCCO)c1ccc(Nc2ncc(C)c(-c3cnn(C(CC#N)C4CCCC4)c3)n2)cc1 (racemic) [Example 80, 3-cyclopentyl-3-(4-(2-(4-(ethyl(3-hydroxypropyl)amino)phenylamino)-5-methylpyrimidin-4-yl)-1H-pyrazol-1-yl)propanenitrile]
CN1CCN(C(=O)c2ccc(Nc3nccc(-c4cnn(C(CC#N)C5CCCC5)c4)n3)cc2)CC1 (racemic) [Example 120, 3-cyclopentyl-3-(4-(2-(4-(4-methylpiperazine-1-carbonyl)phenylamino)pyrimidin-4-yl)-1H-pyrazol-1-yl)propanenitrile]
Cc1cnc(Nc2ccc(C(N)=O)cc2)nc1-c1cnn(C(CC#N)C2CCCC2)c1 (racemic) [Example 70, 4-(4-(1-(2-cyano-1-cyclopentylethyl)-1H-pyrazol-4-yl)-5-methylpyrimidin-2-ylamino)benzamide]
N#CCC(C1CCOCC1)n1cc(-c2ccnc(Nc3ccc(C(=O)N4CCC(C#N)CC4)cc3)n2)cn1 (racemic) [Example 314, 1-{4-[(4-{1-[2-cyano-1-(tetrahydro-2H-pyran-4-yl)ethyl]-1H-pyrazol-4-yl}pyrimidin-2-yl)amino]benzoyl}piperidine-4-carbonitrile]
N#CCC(C1CCC1)n1cc(-c2ccnc(Nc3ccc(-n4cccn4)cc3)n2)cn1 (racemic) [Example 173, 3-(4-(2-(4-(1H-pyrazol-1-yl)phenylamino)pyrimidin-4-yl)-1H-pyrazol-1-yl)-3-cyclobutylpropanenitrile]
N#CCC(C1CCCC1)n1cc(-c2ccnc(Nc3ccc(NC(=O)CNCC4CCOCC4)cc3)n2)cn1 (racemic) [Example 208, N-(4-(4-(1-(2-cyano-1-cyclopentylethyl)-1H-pyrazol-4-yl)pyrimidin-2-ylamino)phenyl)-2-((tetrahydro-2H-pyran-4-yl)methylamino)acetamide]
Cc1cnc(Nc2ccc(N3CCOCC3)cc2)nc1-c1cnn(C(CC#N)CC2CCN(C(=O)c3ccc(F)cc3F)CC2)c1 (racemic) [Example 62, 4-(1-(2,4-difluorobenzoyl)piperidin-4-yl)-3-(4-(5-methyl-2-(4-morpholinophenylamino)pyrimidin-4-yl)-1H-pyrazol-1-yl)butanenitrile]
CS(=O)(=O)N1CCN(c2ccc(Nc3nccc(-c4cnn(C(CC#N)C5CCCC5)c4)n3)cc2)CC1 (racemic) [Example 54, 3-cyclopentyl-3-(4-(2-(4-(4-(methylsulfonyl)piperazin-1-yl)phenylamino)pyrimidin-4-yl)-1H-pyrazol-1-yl)propanenitrile]
CC(=O)N1CCN(C(=O)c2ccc(Nc3nccc(-c4cnn(C5(CC#N)CC(C#N)C5)c4)n3)cc2)CC1 (single isomer, unassigned) [Example 298, 3-(4-(2-(4-(4-acetylpiperazine-1-carbonyl)phenylamino)pyrimidin-4-yl)-1H-pyrazol-1-yl)-3-(cyanomethyl)cyclobutanecarbonitrile]
CN(C(=O)c1ccc(Nc2nccc(-c3cnn(C(CC#N)C4CCCC4)c3)n2)cc1)C1CCOCC1 (racemic) [Example 218, 4-(4-(1-(2-cyano-1-cyclopentylethyl)-1H-pyrazol-4-yl)pyrimidin-2-ylamino)-N-methyl-N-(tetrahydro-2H-pyran-4-yl)benzamide]
N#CCC(CC1CCN(C(=O)c2ccc(F)cc2F)CC1)n1cc(-c2ccnc(Nc3ccccc3)n2)cn1 (racemic) [Example 4, 4-(1-(2,4-difluorobenzoyl)piperidin-4-yl)-3-(4-(2-(phenylamino)pyrimidin-4-yl)-1H-pyrazol-1-yl)butanenitrile]
COc1ccc(Nc2nccc(-c3cnn(C(CC#N)C4CCCC4)c3)n2)cc1 (racemic) [Example 38, 3-cyclopentyl-3-(4-(2-(4-methoxyphenylamino)pyrimidin-4-yl)-1H-pyrazol-1-yl)propanenitrile]
N#CCC(C1CC1)n1cc(-c2ccnc(Nc3cccc(-c4cnco4)c3)n2)cn1 (racemic) [Example 181, 3-cyclopropyl-3-(4-(2-(3-(oxazol-5-yl)phenylamino)pyrimidin-4-yl)-1H-pyrazol-1-yl)propanenitrile]
COCC(C)NC(=O)c1ccc(Nc2ncc(C)c(-c3cnn(C(CC#N)C4CCCC4)c3)n2)cc1 (mixture of isomers) [Example 87, 4-(4-(1-(2-cyano-1-cyclopentylethyl)-1H-pyrazol-4-yl)-5-methylpyrimidin-2-ylamino)-N-(1-methoxypropan-2-yl)benzamide]
N#CCC(C1CCCC1)n1cc(-c2ccnc(Nc3cccc(C(=O)N4CCC(c5cccc(F)c5)C4)c3)n2)cn1 (mixture of isomers) [Example 157, 3-cyclopentyl-3-(4-(2-(3-(3-(3-fluorophenyl)pyrrolidine-1-carbonyl)phenylamino)pyrimidin-4-yl)-1H-pyrazol-1-yl)propanenitrile]
Cc1cnc(Nc2ccc([N+](=O)[O-])cc2)nc1-c1cnn(C(CC#N)C2CCCC2)c1 (racemic) [Example 82, 3-cyclopentyl-3-(4-(5-methyl-2-(4-nitrophenylamino)pyrimidin-4-yl)-1H-pyrazol-1-yl)propanenitrile]
CCS(=O)(=O)N1CCC(CC(CC#N)n2cc(-c3nc(Nc4ccccc4)ncc3C)cn2)CC1 (racemic) [Example 50, 4-(1-(ethylsulfonyl)piperidin-4-yl)-3-(4-(5-methyl-2-(phenylamino)pyrimidin-4-yl)-1H-pyrazol-1-yl)butanenitrile]
N#CCC(C1CCCC1)n1cc(-c2ccnc(Nc3cccc(C(=O)N4CCN(c5ccc(C#N)cc5)CC4)c3)n2)cn1 (racemic) [Example 166, 4-(4-(3-(4-(1-(2-cyano-1-cyclopentylethyl)-1H-pyrazol-4-yl)pyrimidin-2-ylamino)benzoyl)piperazin-1-yl)benzonitrile]
CN(C)C(=O)c1ccc(Nc2nccc(-c3cnn(C(CC#N)C4CCCC4)c3)n2)cc1 (racemic) [Example 40, 4-(4-(1-(2-cyano-1-cyclopentylethyl)-1H-pyrazol-4-yl)pyrimidin-2-ylamino)-N,N-dimethylbenzamide]
Cc1cnc(Nc2ccc(C(=O)O)cc2)nc1-c1cnn(C(CC#N)C2CCCC2)c1 (racemic) [Example 81, 4-(4-(1-(2-cyano-1-cyclopentylethyl)-1H-pyrazol-4-yl)-5-methylpyrimidin-2-ylamino)benzoic acid]
COc1cnc(Nc2ccc(N3CCOCC3=O)cc2)nc1-c1cnn(C(CC#N)C2CCCC2)c1 (racemic) [Example 133, 3-cyclopentyl-3-(4-(5-methoxy-2-(4-(3-oxomorpholino)phenylamino)pyrimidin-4-yl)-1H-pyrazol-1-yl)propanenitrile]
CCS(=O)(=O)N1CC(CC#N)(n2cc(-c3ccnc(Nc4ccc(C(=O)N5CCN(C(C)=O)CC5)cc4)n3)cn2)C1 [Example 281, 2-(3-(4-(2-(4-(4-acetylpiperazine-1-carbonyl)phenylamino)pyrimidin-4-yl)-1H-pyrazol-1-yl)-1-(ethylsulfonyl)azetidin-3-yl)acetonitrile]
N#CCC1(n2cc(-c3ccnc(Nc4ccc(-n5cccn5)cc4)n3)cn2)CC(C#N)C1 (single isomer, unassigned) [Example 341, 3-(cyanomethyl)-3-[4-(2-{[4-(1H-pyrazol-1-yl)phenyl]amino}pyrimidin-4-yl)-1H-pyrazol-1-yl]cyclobutanecarbonitrile]
